Test results as given in ChEMBL document CHEMBL3297697, “Property- and structure-guided discovery of a tetrahydroindazole series of interleukin-2 inducible T-cell kinase inhibitors” (J Med Chem, 2014).
Converted amounts (≈) assume the structure as drawn.

Legend:
[1] = biological target: Dual specificity protein kinase CLK2 (Homo sapiens) (UniProt P49760); experiment: Inhibition of CLK2 (unknown origin) at 0.1 uM
[2] = Clearance in BALB/c mouse at 1 mg/kg, iv by LC-MS/MS analysis; format: ADME, organism-based; design: dose 1 mg/kg, route intravenous; settings: in vivo
[3] = Cmax in Sprague-Dawley rat at 5 mg/kg, po by LC-MS/MS analysis; format: ADME, organism-based; design: dose 5 mg/kg, route oral; settings: in vivo
[4] = Oral bioavailability in beagle dog at 5 mg/kg by LC-MS/MS analysis; format: ADME, organism-based, Canis lupus familiaris; settings: in vivo
[5] = Volume of distribution at steady state in beagle dog at 1 mg/kg, iv by LC-MS/MS analysis; format: ADME, organism-based, Canis lupus familiaris; design: dose 1 mg/kg, route intravenous; settings: in vivo
[6] = Clearance in beagle dog at 1 mg/kg, iv by LC-MS/MS analysis; format: ADME, organism-based, Canis lupus familiaris; design: dose 1 mg/kg, route intravenous; settings: in vivo
[7] = Half life in BALB/c mouse at 1 mg/kg, iv by LC-MS/MS analysis; format: ADME, organism-based; design: dose 1 mg/kg, route intravenous; settings: in vivo
[8] = AUC in BALB/c mouse at 50 mg/kg, po by LC-MS/MS analysis; format: ADME, organism-based; design: dose 50 mg/kg, route oral; settings: plasma
[9] = Oral bioavailability in Sprague-Dawley rat at 5 mg/kg by LC-MS/MS analysis; format: ADME, organism-based; settings: in vivo
[10] = Plasma protein binding in human; format: ADME, cell-free; settings: read-out: PPB (converted)
[11] = Volume of distribution at steady state in Sprague-Dawley rat at 1 mg/kg, iv by LC-MS/MS analysis; format: ADME, organism-based; design: dose 1 mg/kg, route intravenous; settings: in vivo, read-out: Vdss
[12] = biological target: BDNF/NT-3 growth factors receptor (Homo sapiens) (UniProt Q16620); experiment: Inhibition of TRKB (unknown origin) at 0.1 uM
Sequence of BDNF/NT-3 growth factors receptor (Homo sapiens) (Q16620 32-822 limits assumed): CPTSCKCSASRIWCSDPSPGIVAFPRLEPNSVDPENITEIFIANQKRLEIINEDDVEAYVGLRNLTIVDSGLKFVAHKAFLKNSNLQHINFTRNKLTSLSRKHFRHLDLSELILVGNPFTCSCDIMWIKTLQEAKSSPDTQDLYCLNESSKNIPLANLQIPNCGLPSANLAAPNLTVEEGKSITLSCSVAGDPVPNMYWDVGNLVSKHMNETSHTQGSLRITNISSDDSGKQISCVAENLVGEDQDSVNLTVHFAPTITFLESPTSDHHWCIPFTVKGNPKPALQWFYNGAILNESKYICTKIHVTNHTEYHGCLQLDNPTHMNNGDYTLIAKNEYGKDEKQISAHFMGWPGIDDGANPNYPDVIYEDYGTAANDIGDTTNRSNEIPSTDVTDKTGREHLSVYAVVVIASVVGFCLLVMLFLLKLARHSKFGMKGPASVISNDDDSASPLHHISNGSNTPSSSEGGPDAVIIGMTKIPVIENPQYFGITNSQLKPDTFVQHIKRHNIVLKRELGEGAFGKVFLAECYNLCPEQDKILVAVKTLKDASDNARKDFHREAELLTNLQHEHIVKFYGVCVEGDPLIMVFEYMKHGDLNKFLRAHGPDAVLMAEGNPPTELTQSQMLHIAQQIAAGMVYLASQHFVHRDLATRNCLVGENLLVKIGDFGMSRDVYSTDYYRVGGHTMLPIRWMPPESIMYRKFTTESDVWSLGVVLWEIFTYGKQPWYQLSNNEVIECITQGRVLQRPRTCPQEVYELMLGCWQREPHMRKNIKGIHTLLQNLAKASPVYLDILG

[13] = Clearance in Sprague-Dawley rat at 1 mg/kg, iv by LC-MS/MS analysis; format: ADME, organism-based; design: dose 1 mg/kg, route intravenous; settings: in vivo
[14] = AUC in BALB/c mouse at 1 mg/kg, iv by LC-MS/MS analysis; format: ADME, organism-based; design: dose 1 mg/kg, route intravenous; settings: plasma
[15] = Oral bioavailability in BALB/c mouse at 50 mg/kg by LC-MS/MS analysis; format: ADME, organism-based; settings: in vivo
[16] = AUC in beagle dog at 5 mg/kg, po by LC-MS/MS analysis; format: ADME, organism-based, Canis lupus familiaris; design: dose 5 mg/kg, route oral; settings: plasma
[17] = Half life in beagle dog at 1 mg/kg, iv by LC-MS/MS analysis; format: ADME, organism-based, Canis lupus familiaris; design: dose 1 mg/kg, route intravenous; settings: in vivo
[18] = Volume of distribution at steady state in BALB/c mouse at 1 mg/kg, iv by LC-MS/MS analysis; format: ADME, organism-based; design: dose 1 mg/kg, route intravenous; settings: in vivo, read-out: Vdss
[19] = biological target: High affinity nerve growth factor receptor (Homo sapiens) (UniProt P04629); experiment: Inhibition of TRKA (unknown origin) at 0.1 uM
Sequence of High affinity nerve growth factor receptor (Homo sapiens) (P04629 33-796 limits assumed): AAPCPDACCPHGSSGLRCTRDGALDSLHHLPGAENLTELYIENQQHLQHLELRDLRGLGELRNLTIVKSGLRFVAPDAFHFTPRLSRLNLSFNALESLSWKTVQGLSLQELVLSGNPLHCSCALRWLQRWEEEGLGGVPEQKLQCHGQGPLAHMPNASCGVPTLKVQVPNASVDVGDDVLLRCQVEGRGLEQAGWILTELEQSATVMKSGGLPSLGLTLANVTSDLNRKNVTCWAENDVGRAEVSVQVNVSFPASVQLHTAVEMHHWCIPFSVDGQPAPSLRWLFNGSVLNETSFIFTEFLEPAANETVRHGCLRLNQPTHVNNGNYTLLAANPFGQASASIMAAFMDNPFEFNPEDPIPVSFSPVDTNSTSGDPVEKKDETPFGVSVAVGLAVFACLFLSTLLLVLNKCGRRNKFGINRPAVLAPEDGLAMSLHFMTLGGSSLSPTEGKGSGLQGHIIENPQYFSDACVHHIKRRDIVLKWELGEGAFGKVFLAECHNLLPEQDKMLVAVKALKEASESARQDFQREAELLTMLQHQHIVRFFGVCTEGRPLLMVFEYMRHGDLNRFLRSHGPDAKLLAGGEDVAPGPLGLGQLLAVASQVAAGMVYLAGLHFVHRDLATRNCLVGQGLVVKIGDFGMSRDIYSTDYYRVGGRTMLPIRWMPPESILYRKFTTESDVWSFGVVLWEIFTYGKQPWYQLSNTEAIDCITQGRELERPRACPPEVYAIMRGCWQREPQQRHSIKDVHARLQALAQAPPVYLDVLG

[20] = AUC in beagle dog at 1 mg/kg, iv by LC-MS/MS analysis; format: ADME, organism-based, Canis lupus familiaris; design: dose 1 mg/kg, route intravenous; settings: plasma
[21] = biological target: Receptor-type tyrosine-protein kinase FLT3 (Homo sapiens) (UniProt P36888); experiment: Inhibition of FLT3 (unknown origin) at 0.1 uM
physchem [22] = settings: 1-octanol/phosphate buffer, pH 7.4, logD
[23] = AUC in Sprague-Dawley rat at 1 mg/kg, iv by LC-MS/MS analysis; format: ADME, organism-based; design: dose 1 mg/kg, route intravenous; settings: plasma
[24] = biological target: NT-3 growth factor receptor (Homo sapiens) (UniProt Q16288); experiment: Inhibition of TRKC (unknown origin) at 0.1 uM
Sequence of NT-3 growth factor receptor (Homo sapiens) (Q16288 32-839 limits assumed): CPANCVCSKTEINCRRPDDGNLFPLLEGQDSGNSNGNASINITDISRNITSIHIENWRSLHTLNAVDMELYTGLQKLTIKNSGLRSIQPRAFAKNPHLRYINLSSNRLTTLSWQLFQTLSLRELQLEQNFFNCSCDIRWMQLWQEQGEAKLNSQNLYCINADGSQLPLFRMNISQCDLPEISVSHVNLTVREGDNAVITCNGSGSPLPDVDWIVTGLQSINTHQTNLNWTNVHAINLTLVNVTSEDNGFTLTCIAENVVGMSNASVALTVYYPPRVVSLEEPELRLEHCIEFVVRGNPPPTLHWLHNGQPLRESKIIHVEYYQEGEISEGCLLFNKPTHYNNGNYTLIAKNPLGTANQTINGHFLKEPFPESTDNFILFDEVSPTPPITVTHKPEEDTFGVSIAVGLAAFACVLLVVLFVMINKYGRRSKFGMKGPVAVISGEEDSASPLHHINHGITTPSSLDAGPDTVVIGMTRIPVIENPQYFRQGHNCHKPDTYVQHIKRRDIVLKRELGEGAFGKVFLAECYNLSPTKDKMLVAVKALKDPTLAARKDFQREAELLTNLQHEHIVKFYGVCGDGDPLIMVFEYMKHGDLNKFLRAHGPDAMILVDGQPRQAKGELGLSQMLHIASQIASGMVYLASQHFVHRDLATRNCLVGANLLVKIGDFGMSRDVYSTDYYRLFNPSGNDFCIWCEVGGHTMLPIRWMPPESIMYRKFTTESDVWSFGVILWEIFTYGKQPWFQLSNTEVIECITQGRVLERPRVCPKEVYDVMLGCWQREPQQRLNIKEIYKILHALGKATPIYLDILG

[25] = Apparent permeability across MDCK cells; format: ADME, cell-based, Canis lupus familiaris; settings: dog
[26] = Half life in Sprague-Dawley rat at 1 mg/kg, iv by LC-MS/MS analysis; format: ADME, organism-based; design: dose 1 mg/kg, route intravenous; settings: in vivo
[27] = system: T1, Receptor-type tyrosine-protein kinase FLT3 (Homo sapiens), P36888 [D835Y]; experiment: Inhibition of FLT3 D835Y mutant (unknown origin) at 0.1 uM
T1 sequence (whole entry): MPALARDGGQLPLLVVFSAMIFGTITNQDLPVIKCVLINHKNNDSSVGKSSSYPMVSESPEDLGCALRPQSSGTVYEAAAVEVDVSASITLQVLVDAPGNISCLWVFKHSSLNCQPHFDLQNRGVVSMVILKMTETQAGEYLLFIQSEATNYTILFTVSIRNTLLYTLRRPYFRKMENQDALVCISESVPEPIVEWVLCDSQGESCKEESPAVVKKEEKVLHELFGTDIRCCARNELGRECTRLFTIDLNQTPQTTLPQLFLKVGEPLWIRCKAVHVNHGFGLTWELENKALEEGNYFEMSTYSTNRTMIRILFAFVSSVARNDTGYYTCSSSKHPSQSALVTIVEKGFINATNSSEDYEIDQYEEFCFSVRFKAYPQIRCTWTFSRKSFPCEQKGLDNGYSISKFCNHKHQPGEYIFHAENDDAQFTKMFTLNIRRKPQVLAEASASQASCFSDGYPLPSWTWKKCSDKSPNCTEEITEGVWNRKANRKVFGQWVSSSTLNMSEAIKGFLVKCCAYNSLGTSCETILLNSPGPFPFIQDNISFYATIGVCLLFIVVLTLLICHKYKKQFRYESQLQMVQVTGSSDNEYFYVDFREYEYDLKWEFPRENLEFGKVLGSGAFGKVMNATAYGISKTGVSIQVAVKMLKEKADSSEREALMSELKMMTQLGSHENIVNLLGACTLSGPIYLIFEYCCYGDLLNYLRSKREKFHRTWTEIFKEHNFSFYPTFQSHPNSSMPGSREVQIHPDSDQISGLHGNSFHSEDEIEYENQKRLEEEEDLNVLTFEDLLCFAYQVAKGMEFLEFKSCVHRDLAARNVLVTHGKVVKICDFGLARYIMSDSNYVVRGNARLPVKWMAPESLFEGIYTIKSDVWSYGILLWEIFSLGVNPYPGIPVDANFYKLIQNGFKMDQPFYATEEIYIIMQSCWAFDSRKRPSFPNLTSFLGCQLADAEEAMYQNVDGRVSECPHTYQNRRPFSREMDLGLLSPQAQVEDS

[28] = Cmax in BALB/c mouse at 50 mg/kg, po by LC-MS/MS analysis; format: ADME, organism-based; design: dose 50 mg/kg, route oral; settings: in vivo
[29] = Cmax in beagle dog at 5 mg/kg, po by LC-MS/MS analysis; format: ADME, organism-based, Canis lupus familiaris; design: dose 5 mg/kg, route oral; settings: in vivo
physchem [30] = settings: PBS buffer, pH 7.4, Kinetic_solubility
[31] = AUC in Sprague-Dawley rat at 5 mg/kg, po by LC-MS/MS analysis; format: ADME, organism-based; design: dose 5 mg/kg, route oral; settings: plasma

Sequence of Dual specificity protein kinase CLK2 (Homo sapiens) (P49760 whole entry, looked up): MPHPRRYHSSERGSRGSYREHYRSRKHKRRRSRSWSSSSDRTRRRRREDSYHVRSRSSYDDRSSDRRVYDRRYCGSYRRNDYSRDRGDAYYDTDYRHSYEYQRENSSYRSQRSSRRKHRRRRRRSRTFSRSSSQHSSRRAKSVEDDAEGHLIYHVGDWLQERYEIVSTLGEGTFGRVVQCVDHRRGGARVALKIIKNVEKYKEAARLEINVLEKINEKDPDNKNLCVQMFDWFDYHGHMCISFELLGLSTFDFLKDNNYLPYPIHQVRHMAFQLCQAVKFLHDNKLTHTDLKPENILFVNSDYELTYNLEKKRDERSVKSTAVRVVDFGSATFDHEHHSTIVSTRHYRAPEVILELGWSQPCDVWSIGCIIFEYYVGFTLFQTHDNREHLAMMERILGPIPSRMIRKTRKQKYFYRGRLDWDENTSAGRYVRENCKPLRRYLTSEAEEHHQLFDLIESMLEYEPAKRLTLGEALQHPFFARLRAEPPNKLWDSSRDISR

**Q.** Which results are given for `CN(C)CC[C@@H](c1ccccc1)n1cc(NC(=O)c2n[nH]c3c2CCC(C)(C)C3)cn1`?
**A.** inhibition [1]: 93%; clearance [2]: 40 mL/min/kg; Cmax [3]: 200 nM; bioavailability [4]: 100%; Vd [5]: 6.7 L/kg; clearance [6]: 21 mL/min/kg; half-life [7]: 2.9 h; AUC [8]: 27 µM·h; bioavailability [9]: 40%; fraction unbound [10]: 0.07; Vd [11]: 14 L/kg; inhibition [12]: 91%; clearance [13]: 70 mL/min/kg; AUC [14]: 1.5 µM·h; bioavailability [15]: 36%; AUC [16]: 10 µM·h; half-life [17]: 5.4 h; Vd [18]: 10 L/kg; inhibition [19]: 80%; AUC [20]: 1.9 µM·h; inhibition [21]: 76%; logD at 20 min, 10000 µM (physchem [22]): 2; AUC [23]: 0.6 µM·h; inhibition [24]: 88%; Papp [25]: 4.6 ×10⁻⁶ cm/s; half-life [26]: 3 h; inhibition [27]: 75%; Cmax [28]: 3800 nM; Cmax [29]: 900 nM; solubility kinetic at 24 h, 10000 µM (physchem [30]): 68 µM (≈ 28.6 µg/mL); AUC [31]: 1.1 µM·h
